The target in test [1] is T1, GAA (lysosomal alpha-glucosidase) (Homo sapiens, UniProt P10253).
T1 construct: endogenous enzyme in HEK293T cells (GBA2-expressing line)
As to the kind of experiment: intact cells treated, residual activity in lysate with 4MU-alpha-D-glucopyranoside. The class given is cell-based. The settings on record: 24 h treatment of intact HEK293T cells, assay pH 4.0. An excerpt:
intact cells treated, residual activity in lysate with 4MU-alpha-D-glucopyranoside on GAA (lysosomal alpha-glucosidase)

A further test addresses T2, GANAB (Homo sapiens, UniProt Q14697).
T2 construct: endogenous enzyme in HEK293T cells (GBA2-expressing line); beta subunit not mentioned
T2 sequence (Q14697 29-944): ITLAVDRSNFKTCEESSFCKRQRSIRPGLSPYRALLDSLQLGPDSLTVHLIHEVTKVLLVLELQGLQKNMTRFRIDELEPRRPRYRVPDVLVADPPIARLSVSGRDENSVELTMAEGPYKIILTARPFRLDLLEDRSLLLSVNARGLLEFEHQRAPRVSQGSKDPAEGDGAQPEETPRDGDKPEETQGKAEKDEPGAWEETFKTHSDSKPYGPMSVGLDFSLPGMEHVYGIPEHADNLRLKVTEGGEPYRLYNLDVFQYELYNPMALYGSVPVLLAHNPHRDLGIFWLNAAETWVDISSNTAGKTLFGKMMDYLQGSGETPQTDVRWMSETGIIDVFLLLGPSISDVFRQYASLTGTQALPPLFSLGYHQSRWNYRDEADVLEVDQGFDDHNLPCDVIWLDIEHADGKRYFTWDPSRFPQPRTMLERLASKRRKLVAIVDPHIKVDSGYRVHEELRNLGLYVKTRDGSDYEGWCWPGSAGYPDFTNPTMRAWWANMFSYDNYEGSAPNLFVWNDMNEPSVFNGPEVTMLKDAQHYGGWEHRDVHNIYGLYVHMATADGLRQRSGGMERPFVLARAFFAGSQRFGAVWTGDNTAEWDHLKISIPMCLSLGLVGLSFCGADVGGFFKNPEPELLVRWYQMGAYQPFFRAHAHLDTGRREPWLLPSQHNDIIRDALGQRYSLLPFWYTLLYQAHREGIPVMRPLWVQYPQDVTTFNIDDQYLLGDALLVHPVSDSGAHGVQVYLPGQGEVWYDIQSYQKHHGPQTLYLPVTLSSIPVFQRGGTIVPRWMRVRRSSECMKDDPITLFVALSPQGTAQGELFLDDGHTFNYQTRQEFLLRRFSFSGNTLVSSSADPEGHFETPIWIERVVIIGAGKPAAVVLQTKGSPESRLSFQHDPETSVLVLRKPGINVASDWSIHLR
Described as above. The test is classed as cell-based. As to conditions: 24 h treatment of intact HEK293T cells, assay pH 7.0.

In test [2] the target is T3, GBA2 (nonlysosomal glucosylceramidase) (Homo sapiens, UniProt Q9HCG7).
T3 construct: human GBA2 stably expressed in HEK293T; 110 kDa on gel
T3 sequence (Q9HCG7 1-927): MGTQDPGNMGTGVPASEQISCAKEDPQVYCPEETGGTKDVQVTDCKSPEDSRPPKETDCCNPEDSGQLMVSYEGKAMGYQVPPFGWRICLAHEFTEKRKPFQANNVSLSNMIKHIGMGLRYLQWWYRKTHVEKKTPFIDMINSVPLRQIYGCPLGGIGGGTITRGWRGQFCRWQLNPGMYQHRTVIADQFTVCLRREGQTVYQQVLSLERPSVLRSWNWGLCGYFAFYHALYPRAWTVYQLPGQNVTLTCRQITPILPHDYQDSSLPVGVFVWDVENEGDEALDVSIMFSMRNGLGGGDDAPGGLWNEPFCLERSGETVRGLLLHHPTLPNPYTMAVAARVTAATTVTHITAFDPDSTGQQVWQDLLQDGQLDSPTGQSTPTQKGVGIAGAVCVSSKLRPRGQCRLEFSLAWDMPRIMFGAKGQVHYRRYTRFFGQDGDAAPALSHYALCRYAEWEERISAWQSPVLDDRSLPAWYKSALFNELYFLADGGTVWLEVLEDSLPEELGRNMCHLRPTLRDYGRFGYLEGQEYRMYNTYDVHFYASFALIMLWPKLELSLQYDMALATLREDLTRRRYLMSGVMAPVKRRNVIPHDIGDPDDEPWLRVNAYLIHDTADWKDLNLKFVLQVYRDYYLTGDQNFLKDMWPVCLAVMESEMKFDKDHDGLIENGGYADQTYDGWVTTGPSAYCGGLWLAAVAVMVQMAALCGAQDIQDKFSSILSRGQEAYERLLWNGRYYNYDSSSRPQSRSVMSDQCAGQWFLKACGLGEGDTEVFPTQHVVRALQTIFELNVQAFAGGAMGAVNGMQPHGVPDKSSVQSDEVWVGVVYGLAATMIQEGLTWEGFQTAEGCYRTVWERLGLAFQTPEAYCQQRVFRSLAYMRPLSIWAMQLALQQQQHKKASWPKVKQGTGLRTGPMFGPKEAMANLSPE
Description: intact cells treated, residual activity in lysate with 4MU-glucoside. The test is classed as cell-based. The source says: intact cells treated, residual activity in lysate with 4MU-glucoside on GBA2 (nonlysosomal glucosylceramidase)

The target in test [3] is T4, recombinant human GBA (rGBA, imiglucerase) (Homo sapiens, UniProt P04062, R534H).
T4 construct: gene GBA1; imiglucerase (Sanofi Genzyme), mature secreted enzyme
T4 sequence (P04062 40-536 R534H): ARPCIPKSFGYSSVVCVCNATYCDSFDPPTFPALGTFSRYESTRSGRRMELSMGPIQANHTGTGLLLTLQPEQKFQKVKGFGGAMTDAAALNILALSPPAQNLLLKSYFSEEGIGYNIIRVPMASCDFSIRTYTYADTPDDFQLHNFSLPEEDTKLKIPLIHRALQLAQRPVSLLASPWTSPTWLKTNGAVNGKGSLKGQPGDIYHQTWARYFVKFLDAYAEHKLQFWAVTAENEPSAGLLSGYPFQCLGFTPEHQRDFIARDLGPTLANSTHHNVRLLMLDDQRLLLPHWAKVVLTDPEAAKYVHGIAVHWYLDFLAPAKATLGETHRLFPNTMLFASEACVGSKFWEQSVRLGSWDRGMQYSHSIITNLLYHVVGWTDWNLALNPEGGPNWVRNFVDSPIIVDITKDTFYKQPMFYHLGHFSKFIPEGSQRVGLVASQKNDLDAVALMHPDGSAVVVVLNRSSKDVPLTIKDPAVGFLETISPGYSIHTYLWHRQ
Description: residual activity, fluorogenic 4MU-glucoside assay. The test is classed as biochemical. As to conditions: covalent, irreversible, 180 min preincubation, pH 5.2, 37 °C, 0.2% taurocholate, 0.1% Triton X-100, 3.75 mM 4MU-beta-D-glucopyranoside. The source says:
residual activity, fluorogenic 4MU-glucoside assay on recombinant human GBA (rGBA, imiglucerase)

Where [4] appears, read: covalent, read-out: CBE / Enz. assay.

Where two headings read alike, the source gives them in different places.

`OC[C@@H]1[C@@H](O)[C@H](O)[C@@H](O)[C@@H]2O[C@H]12` [compound 2, cyclophellitol]: the IC50 in test [1] (read-out: CP / Enz. assay) was above 10 µM; on GANAB (read-out: apparent IC50), above 10 µM; in test [2] (read-out: CP / Enz. assay) it was 0.198 µM; in test [3] (read-out: CP / Enz. assay), 0.03 µM.
For `OC1C(O)C(O)C2OC2C1O` (centres unmarked) [compound 1, conduritol B epoxide], the IC50 is 309 µM in test [1] (setting [4]), 1580 µM on GANAB (setting [4]), 272 µM in test [2] (read-out: CBE / Enz. assay) and 4.28 µM in test [3] (read-out: CBE / Enz. assay).

Source of the values: article PMC6850446, “In vivo inactivation of glycosidases by conduritol B epoxide and cyclophellitol as revealed by activity‐based protein profiling” (The Febs Journal, 2019).
